From BindingDB's records for doi:10.1016/0960-894X(95)00360-6 (1995) come the findings set out here.

As usually defined, the IC50 is the midpoint of a concentration-inhibition curve. The low end stands for greater potency, the high end for weaker potency.

A short description of this test: Ability to inhibit calf thymus topoisomerase I when assayed in the cleavable complex formation.

As to `CC[C@@]1(O)C(=O)OCc2c1cc1n(c2=O)Cc2cc3cc4ncoc4cc3nc2-1` [7-ethyl-7-hydroxy-(7S)-7,8,11,13-tetrahydro-10H-[1,3]oxazolo[4,5-g]pyrano[3',4':6,7]indolizino[1,2-b]quinoline-8,11-dione], half-maximal inhibition (IC50) was put at 150 nM.
`CC[C@@]1(O)C(=O)OCc2c1cc1n(c2=O)Cc2cc3cc(N)c(O)cc3nc2-1` [(S)-9-Amino-4-ethyl-4,8-dihydroxy-1,12-dihydro-4H-2-oxa-6,12a-diaza-dibenzo[b,h]fluorene-3,13-dione] yielded an IC50 of 170 nM.
